Assay results from paper PMC11855827, “High-Throughput Screening of Five Compound Libraries for Anthelmintic Activity and Toxicity Leads to the Discovery of Two Flavonoid Compounds” (International Journal of Molecular Sciences, 2025).
Like-named read-outs stand apart in the source and are kept apart here. Marks after values point to notes of the source that are not given here.

Key:
C. elegans [1] = experiment: C. elegans motility dose-response (DR) assay; parameters: species or system Caenorhabditis elegans
[2] = tested on: H. contortus susceptible strain; experiment: Larval migration inhibition test (LMIT); parameters: species or system Haemonchus contortus; conditions: L3, 100 μM, NE = Not Effective at 100 μM, control ivermectin 8.75 µg/mL; for inhibition at 100 µM: Haemonchus contortus, 24 h
Excerpt: (§1) Eggs and third instar larvae (L3) of H. contortus from a field strain and a resistant strain of T. circumcincta were used in the current trials. These parasitic forms were obtained from fresh feces of Merino and Churra sheep experimentally infected at the experimental farm of the Instituto de Ganadería de Montaña (IGM, CSIC, Gruyeros, León, Spain) and purified according to previously described methods. Briefly, eggs were taken from fresh feces, washed, centrifuged and floated with a saturated sodium chloride solution, then concentrated, counted and used in the assays. L3 were obtained by culturing feces at 25 °C for 13 d. L3 larvae were […] in 0.5% sodium hypochlorite solution for 10 min at room temperature and washed to avoid excess salt. After washing, they were concentrated and counted for use.
(§2) The viability of H. contortus larvae was assessed by the larval migration inhibition test (LMIT) according to previously described methods. Briefly, 700 µL aliquots containing 500–600 L3 were prepared for each compound. […] After a 24 h incubation at 28 °C, the compound was removed by three washes, leaving a final volume of 1400 µL. After the washes, three 400 µL aliquots were taken from each tube and transferred to a 96-well plate with a MultiScreen mesh filter. The plates were incubated for a further 24 h at 28 °C to allow the motile L3 to pass through the 20 µm mesh for counting. Then, the number of larvae present in each well was counted to determine percentage of larval migration for each compound: % Larval migration=number of larvae migrating in compound wells/number of larvae migrating in negative control×100
(§3) For the larvae, ivermectin at 8.75 µg/mL and DMSO 0.5% (v/v) were used as controls and at least 12 replicates were performed. […] EC50 were determined by plotting the percentage of viability of the L1 against the concentration of each compound, using the nonlinear fit analysis provided by the SigmaPlot® 10.1.

[3] = tested on: T. circumcincta resistant strain; experiment: Egg hatch inhibition (EHI), ovicidal effect; parameters: species or system Teladorsagia circumcincta; conditions: for T. circumcincta EHI (%) / inhibition at 100 µM: resistant strain, 100 μM, NE = Not Effective at 100 μM, control thiabendazole 0.1 µg/mL; for EC50 / inhibition at 100 µM: Teladorsagia circumcincta; for EC50: egg hatching, resistant T. circumcincta, nine replicates, read-out: Ovicidal Effect EC50 (μM) T. c
[4] = tested on: H. contortus susceptible strain; experiment: Egg hatch inhibition (EHI), ovicidal effect; parameters: species or system Haemonchus contortus; conditions: for H. contortus EHI (%) / inhibition at 100 µM: susceptible strain, 100 μM, NE = Not Effective at 100 μM, control thiabendazole 0.1 µg/mL; for EC50 / inhibition at 100 µM: Haemonchus contortus; for EC50: egg hatching, susceptible H. contortus, nine replicates, read-out: Ovicidal Effect EC50 (μM) H. c
C. elegans [5] = tested on: C. elegans
[6] = tested on: T. circumcincta resistant strain; experiment: Larval migration inhibition test (LMIT); parameters: species or system Teladorsagia circumcincta; conditions: for inhibition at 100 µM: Teladorsagia circumcincta, 24 h, read-out: T. circumcincta LMIT (%)
Excerpt: as §1, §2, §3

in vitro = conditions: C57BL/6, mouse
C. elegans [7] = experiment: microbe, parasite or virus in culture; conditions: Caenorhabditis elegans
[8] = Spheroids toxicity assay (alamarBlue); assay type: cell-based; conditions: human
Procedure: HepG2 cells were cultured as a monolayer under standard conditions, using DMEM/F12 medium supplemented with L-glutamine and 15 mM HEPES buffer (pH 7.2) supplemented with 10% fetal bovine serum (FBS) and antibiotic mixture (100 U/mL penicillin and 100 µg/mL streptomycin) at 37 °C and 5% CO2, according to previous published protocols.
Cells were detached from the culture flask using 0.25% trypsin solution and then centrifuged at 500× g for 6.5 min. After centrifugation, the supernatant was discarded, and the pellet was resuspended in culture medium. Cells were passed gently through a G27 needle several times and then counted. Cells were dispensed into a tissue treated Nunclon™ Sphera™ 96-well U-bottom plate (Thermo Scientific™, Waltham, MA, USA, 174925) in a final volume of 50 µL to a total of 2500 cells/well. In addition, another 50 µL of medium supplemented with Rat Tail Collagen I (Gibco™, Thermo Scientific™, Waltham, MA, USA, A1048301) was dispensed, to achieve a final concentration in a plate of 3 µg/mL for each well. The plate was centrifuged at 500× g for 1 min.
On Day 4, 100 µL of a serial dilution of the testing compounds were added to each well. For controls, 0.03% H2O2 (v/v) as positive control and 0.2% DMSO (v/v) as negative control were used.
To determine the viability of the spheroids to the testing compounds, a 20% of alamarBlue™ HS reagent (Invitrogen™, Thermo Fisher Scientific™, Waltham, MA, USA) was added on Day 7 and the results were read 24 h later using a Varioskan™ LUX (Thermo Scientific, USA, Instrument software ver. 1.00.37, Skanlt software ver. 5.0.0.42). All assays were conducted in duplicate across at least three independent experiments.

[9] = Mouse intestinal organoids' tolerance assay (alamarBlue); conditions: C57BL/6, mouse
C. elegans [10] = conditions: cited from earlier work
[11] = read-out: EC50 (μM) at 24 h, C. elegans motility, DR assay
[12] = C. elegans L4 motility, 110 μM, 0 h, mean ± SD of four experiments
[13] = C. elegans L4 motility, 110 μM, 24 h, mean ± SD of four experiments
[14] = resistant strain, L3, 100 μM, NE = Not Effective at 100 μM, control ivermectin 8.75 µg/mL
[15] = 0 h, read-out: Inhibition (%) 110 μM (0 h), C. elegans L4 motility, 110 μM, 0 h, mean ± SD of four experiments
[16] = 24 h, read-out: Inhibition (%) 110 μM (24 h), C. elegans L4 motility, 110 μM, 24 h, mean ± SD of four experiments
[17] = Caenorhabditis elegans, read-out: EC50 (μM) at 24 h, C. elegans motility, DR assay
[18] = 0 h, read-out: Inhibition (%) 110 μM (0 h)
[19] = 24 h, read-out: Inhibition (%) 110 μM (24 h)
[20] = Caenorhabditis elegans, 24 h, read-out: EC50 (μM) at 24 h, C. elegans motility, DR assay, 24 h
[21] = read-out: EC50 found in the literature
[22] = 24 h, read-out: Percentage of motility inhibition 24 h, Table S2, C. elegans SS assay, 110 μM, 24 h, averages of 4 data points

CC1(C)[C@H](OC(=O)c2ccccc2)CC[C@]2(C)C3=C([C@@H](O)C[C@@H]12)[C@@]1(C)CC[C@@]2(C)CC[C@@](C)(COC(=O)c4ccccc4)C[C@H]2[C@]1(C)CC3 [3,29-dibenzoyl rarounitriol]
EC50 (C. elegans [1]; [11]): 45.4 ± 5.1 µM | H. contortus LMIT (%) [2]: 0.0% | T. circumcincta EHI (%) [3]: 0.0% | H. contortus EHI (%) [4]: 0.0% | Inhibition (%) 110 μM (0 h) (C. elegans [5]; [12]): 40 ± 22% | Inhibition (%) 110 μM (24 h) (C. elegans [5]; [13]): 71 ± 19% | T. circumcincta LMIT (%) [6, 14]: 0.0 * %

O=C(/C=C/c1ccccc1)c1ccccc1 [Chalcone]
selectivity ratio (in vitro; Selective Index (SI) CC50/EC50 Ent/H. c): > 13.5 | selectivity ratio (in vitro; Selective Index (SI) CC50/EC50 Ent/T. c): > 5.1 | EC50 (C. elegans [1]; [11]): 52.4 ± 1.4 µM | inhibition at 110 µM (C. elegans [7]; [15]): 30 ± 30% | inhibition at 110 µM (C. elegans [7]; [16]): 85 ± 15% | H. contortus LMIT (%) [2]: 45.7 ± 4.5% | EC50 [3]: 9.8 ± 0.3 µM | inhibition at 100 µM [3]: 100% | EC50 [4]: 3.7 ± 0.1 µM | inhibition at 100 µM [4]: 99.4 ± 0.1% | CC50 at 3 d ([8]; HepG2 liver spheroids (3D culture), read-out: Citotoxicity CC50 (μM) Sph): > 90 µM | selectivity ratio ([8]; pH 7.2, Selective Index (SI) CC50/EC50 Sph/H. c): > 24.3 | selectivity ratio ([8]; pH 7.2, Selective Index (SI) CC50/EC50 Sph/T. c): > 9.2 | Percentage of motility inhibition 24 h (C. elegans [5]; 24 h, 110 µM): 86% | inhibition at 100 µM [6, 14]: 4.7 ± 1.5% | CC50 at 3 d [9]: > 50 µM | EC50 (C. elegans [10]; nematocidal, read-out: EC50 against C. elegans): 52 ± 9 µM

C[C@@H]1CC[C@@]2(OC1)O[C@H]1C[C@H]3[C@@H]4CC=C5C[C@@H](O[C@@H]6O[C@H](CO)[C@@H](O[C@@H]7O[C@@H](C)[C@H](O)[C@@H](O)[C@H]7O)[C@H](O)[C@H]6O[C@@H]6O[C@@H](C)[C@H](O)[C@@H](O)[C@H]6O)CC[C@]5(C)[C@H]4CC[C@]3(C)[C@H]1[C@@H]2C [Dioscin]
EC50 (C. elegans [1]; [17]): 37.8 ± 1.3 µM | inhibition at 110 µM (C. elegans [7]; [18]): 12 ± 1% | inhibition at 110 µM (C. elegans [7]; [19]): 79 ± 2% | inhibition at 100 µM [2]: 0% | inhibition at 100 µM [6]: 0%

CCOc1ccc2nc3cc(N)ccc3c(N)c2c1 [Ethacridine lactate monohydrate, reference compound]
EC50 (C. elegans [1]; [11]): 28.2 ± 1 µM | inhibition at 110 µM (C. elegans [7]; 0 h, read-out: Percentage of motility inhibition 0 h, Table S2, C. elegans SS assay, 110 μM, 0 h, averages of 4 data points): 72% | H. contortus LMIT (%) [2]: 0.0% | T. circumcincta EHI (%) [3]: 0.0% | H. contortus EHI (%) [4]: 54.8 ± 11.7% | Inhibition (%) 110 μM (0 h) (C. elegans [5]; [12]): 73 ± 17% | Inhibition (%) 110 μM (24 h) (C. elegans [5]; [13]): 89 ± 4% | inhibition at 100 µM [6, 14]: 0%

CCOc1ccc2nc3cc(N)ccc3c(N)c2c1 [Ethacridine lactate, reference compound]
EC50 (C. elegans [1]; [20]): 50.1 ± 1 µM | inhibition at 110 µM (C. elegans [7]; [15]): 66 ± 26% | inhibition at 110 µM (C. elegans [7]; [16]): 87 ± 6% | H. contortus LMIT (%) [2]: 4.9 ± 2.2% | T. circumcincta EHI (%) [3]: 4.0 ± 1.5% | inhibition at 100 µM [4]: 55.8 ± 5.1%

c1ccc([C@H]2CN3CCSC3=N2)cc1 [Levamisole, reference compound]
EC50 (C. elegans [1]; [20]): 1.91 µM | inhibition at 110 µM (C. elegans [7]; [15]): 87 ± 10% | inhibition at 110 µM (C. elegans [7]; [16]): 61 ± 3% | EC50 (C. elegans [10]; [21]): 6.4 µM

CO/N=C1\C[C@]2(C[C@@H]3C[C@@H](C/C=C(\C)C[C@@H](C)/C=C/C=C4\CO[C@@H]5[C@H](O)C(C)=C[C@@H](C(=O)O3)[C@]45O)O2)O[C@H](/C(C)=C/C(C)C)[C@H]1C [Moxidectin, reference compound]
EC50 (C. elegans [1]; [20]): 0.79 µM | inhibition at 110 µM (C. elegans [7]; [15]): 99 ± 1% | inhibition at 110 µM (C. elegans [7]; [16]): 85 ± 13% | inhibition at 110 µM (C. elegans [7]; [22]): 86% | EC50 (C. elegans [10]; [21]): 0.03 µM

CC[C@@H](C(=O)[C@@H](C)[C@@H](O)[C@H](C)[C@@H]1O[C@@H]([C@@H](CC)C(=O)O)CC[C@@H]1C)[C@H]1O[C@]2(C=C[C@@H](O)[C@]3(CC[C@@](C)([C@H]4CC[C@](O)(CC)[C@H](C)O4)O3)O2)[C@H](C)C[C@@H]1C [Salinomycin, reference compound]
EC50 (C. elegans [1]; [17]): 55.3 ± 1.4 µM | inhibition at 110 µM (C. elegans [7]; [18]): 81 ± 9% | inhibition at 110 µM (C. elegans [7]; [19]): 94 ± 1% | inhibition at 110 µM (C. elegans [7]; [22]): 93% | inhibition at 100 µM [2]: 0% | inhibition at 100 µM [4]: 2.8 ± 5.1%

c1ccc2[nH]c(-c3cscn3)nc2c1 [Thiabendazole, reference compound]
EC50 [3]: 1.53 ± 0.06 µM | inhibition at 100 µM [3]: 100% | EC50 [4]: 0.28 ± 0.01 µM | inhibition at 100 µM [4]: 100%

Ivermectin [reference compound]
EC50 (C. elegans [1]; [11]): 2.18 µM | H. contortus LMIT (%) [2]: 100.0 ± 0.0% | Inhibition (%) 110 μM (0 h) (C. elegans [5]): 98 ± 1% | Inhibition (%) 110 μM (24 h) (C. elegans [5]): 85 ± 14% | T. circumcincta LMIT (%) [6, 14]: 100.0 ± 0.0% | EC50 (C. elegans [10]; [21]): 0.19 µM
